{
  "source": "ChEMBL document CHEMBL4433250",
  "about": "“Structure-based design of potent linear peptide inhibitors of the YAP-TEAD protein-protein interaction derived from the YAP omega-loop sequence” (Bioorg Med Chem Lett, 2019)",
  "note": "pIC50, pKd: −log10 of the molar value. Calls of active or inactive are those of the source. The calls are words filed in the database; no cut-off is given here. Where a SMILES comes first, the peptide text is derived from it. [ ]: non-standard residue; d: D form. Trp(6-Cl) = N[C@@H](Cc1c[nH]c2cc(Cl)ccc12)C(=O)O; Phe(3-F) = N[C@@H](Cc1cccc(F)c1)C(=O)O; 1Nal = N[C@@H](Cc1cccc2ccccc12)C(=O)O; Hyp = O=C(O)[C@@H]1C[C@@H](O)CN1; Cba = N[C@@H](CC1CCC1)C(=O)O; Nle = CCCC[C@H](N)C(=O)O; Ac3c = NC1(C(=O)O)CC1",
  "data": [
    {"molecular_target": "T1, Transcriptional enhancer factor TEF-3 (Homo sapiens, UniProt Q15561)", "T1 sequence (Q15561 whole entry)": "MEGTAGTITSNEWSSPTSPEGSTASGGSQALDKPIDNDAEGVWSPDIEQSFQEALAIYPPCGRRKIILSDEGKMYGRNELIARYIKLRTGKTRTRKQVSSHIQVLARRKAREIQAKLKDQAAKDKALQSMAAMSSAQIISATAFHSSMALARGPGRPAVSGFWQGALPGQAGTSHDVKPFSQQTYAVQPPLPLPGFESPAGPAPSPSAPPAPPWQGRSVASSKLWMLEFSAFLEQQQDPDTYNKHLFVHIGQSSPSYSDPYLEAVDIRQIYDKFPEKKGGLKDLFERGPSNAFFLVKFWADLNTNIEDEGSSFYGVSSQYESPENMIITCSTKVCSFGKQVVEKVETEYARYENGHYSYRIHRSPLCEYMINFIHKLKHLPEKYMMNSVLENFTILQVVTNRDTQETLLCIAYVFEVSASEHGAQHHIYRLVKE", "assay": "Inhibition of TEAD4 in human SF268 ::MCAT-Luc RGA model cells up to 20 uM by YAP/TEAD-dependent luciferase reporter gene assay", "values": [
      {"compound": "CC(C)C[C@H](NC(=O)[C@H](CCCNC(=N)N)NC(=O)[C@H](Cc1c[nH]c2cc(Cl)ccc12)NC(=O)[C@@H]1CCCN1)C(=O)N[C@@H](CCCNC(=N)N)C(=O)N[C@@H](CCCCN)C(=O)N[C@@H](CC1CCC1)C(=O)N1C[C@H](O)C[C@H]1C(=O)N[C@@H](CC(=O)O)C(=O)N[C@@H](CO)C(=O)N[C@@H](Cc1ccccc1)C(=O)N[C@@H](Cc1cccc2ccccc12)C(=O)N[C@@H](CCCCN)C(=O)N[C@@H](CCC(=O)O)C(=O)N1CCC[C@H]1C(=O)O", "note": "(H-P[Trp(6-Cl)]RLRK[Cba][Hyp]DSF[1Nal]KEP-OH)", "inhibition": "inactive"}
    ]},
    {"molecular_target": "T1, Transcriptional enhancer factor TEF-3", "assay": "Binding affinity to Avi-tagged human TEAD4 (217 to 434 residues) expressed in Escherichia coli BL21 (DE3) by SPR assay", "values": [
      {"compound": "CC(C)C[C@H](NC(=O)[C@H](CCCNC(=N)N)NC(=O)[C@H](Cc1c[nH]c2cc(Cl)ccc12)NC(=O)[C@@H]1CCCN1)C(=O)N[C@@H](CCCNC(=N)N)C(=O)N[C@@H](CCCCN)C(=O)N[C@@H](CC1CCC1)C(=O)N1C[C@H](O)C[C@H]1C(=O)N[C@@H](CC(=O)O)C(=O)N[C@@H](CO)C(=O)N[C@@H](Cc1ccccc1)C(=O)N[C@@H](Cc1cccc2ccccc12)C(=O)N[C@@H](CCCCN)C(=O)N[C@@H](CCC(=O)O)C(=O)N1CCC[C@H]1C(=O)O", "note": "(H-P[Trp(6-Cl)]RLRK[Cba][Hyp]DSF[1Nal]KEP-OH)", "pKd": 7.60}
    ]},
    {"molecular_target": "T1, Transcriptional enhancer factor TEF-3", "assay": "Inhibition of human TEAD4 (217 to 434 residues) expressed in Escherichia coli BL21 (DE3) interaction with N-biotinylated YAP (60 to 100 residues) incubated for 2 hrs by TR-FRET assay", "values": [
      {"compound": "CCCC[C@H](NC(=O)[C@H](CCCCN)NC(=O)[C@H](CCCNC(=N)N)NC(=O)[C@H](CC(C)C)NC(=O)[C@H](CCCNC(=N)N)NC(=O)[C@H](Cc1c[nH]c2cc(Cl)ccc12)NC(=O)[C@@H]1CCCN1)C(=O)N1CCC[C@H]1C(=O)N[C@@H](CC(=O)O)C(=O)N[C@@H](CO)C(=O)N[C@@H](Cc1ccccc1)C(=O)N[C@@H](Cc1ccccc1)C(=O)N[C@@H](CCCCN)C(=O)N1CCC[C@H]1C(=O)N1CCC[C@H]1C(=O)O", "note": "(H-P[Trp(6-Cl)]RLRK[Nle]PDSFFKPP-OH)", "pIC50": 5.81},
      {"compound": "CCCC[C@H](NC(=O)[C@H](CCCCN)NC(=O)[C@H](CCCNC(=N)N)NC(=O)[C@H](CC(C)C)NC(=O)[C@H](CCCNC(=N)N)NC(=O)[C@H](Cc1c[nH]c2cc(Cl)ccc12)NC(=O)[C@@H]1CCCN1)C(=O)N1CCC[C@H]1C(=O)N[C@@H](CC(=O)O)C(=O)N[C@@H](CO)C(=O)N[C@@H](Cc1ccccc1)C(=O)N[C@@H](Cc1cccc2ccccc12)C(=O)N[C@@H](CCCCN)C(=O)N1CCC[C@H]1C(=O)N1CCC[C@H]1C(=O)O", "note": "(H-P[Trp(6-Cl)]RLRK[Nle]PDSF[1Nal]KPP-OH)", "pIC50": 6.39},
      {"compound": "H-PMRLRKLPDSFFKPP-OH", "pIC50": 4.15},
      {"compound": "CC(C)C[C@H](NC(=O)[C@H](CCCNC(=N)N)NC(=O)[C@H](Cc1c[nH]c2cc(Cl)ccc12)NC(=O)[C@@H]1CCCN1)C(=O)N[C@@H](CCCNC(=N)N)C(=O)N[C@@H](CCCCN)C(=O)N[C@@H](CC1CCC1)C(=O)N1CCC[C@H]1C(=O)N[C@@H](CC(=O)O)C(=O)N[C@@H](CO)C(=O)N[C@@H](Cc1ccccc1)C(=O)N[C@@H](Cc1cccc2ccccc12)C(=O)N[C@@H](CCCCN)C(=O)N[C@@H](CCC(=O)O)C(=O)N1CCC[C@H]1C(=O)O", "note": "(H-P[Trp(6-Cl)]RLRK[Cba]PDSF[1Nal]KEP-OH)", "pIC50": 7.35},
      {"compound": "N=C(N)NCCC[C@H](NC(=O)[C@H](Cc1c[nH]c2cc(Cl)ccc12)NC(=O)[C@@H]1CCCN1)C(=O)NC1(C(=O)N[C@@H](CCCNC(=N)N)C(=O)N[C@@H](CCCCN)C(=O)N[C@@H](CC2CCC2)C(=O)N2C[C@H](O)C[C@H]2C(=O)N[C@@H](CC(=O)O)C(=O)N[C@@H](CO)C(=O)N[C@@H](Cc2ccccc2)C(=O)N[C@@H](Cc2cccc3ccccc23)C(=O)N[C@@H](CCCCN)C(=O)N[C@@H](CCC(=O)O)C(=O)N2CCC[C@H]2C(=O)O)CC1", "note": "(H-P[Trp(6-Cl)]R[Ac3c]RK[Cba][Hyp]DSF[1Nal]KEP-OH)", "pIC50": 8.05},
      {"compound": "CC(C)C[C@H](NC(=O)[C@H](CCCNC(=N)N)NC(=O)[C@H](Cc1c[nH]c2cc(Cl)ccc12)NC(=O)[C@@H]1CCCN1)C(=O)N[C@@H](CCCNC(=N)N)C(=O)N[C@@H](CCCCN)C(=O)N[C@@H](CC1CCC1)C(=O)N1CCC[C@H]1C(=O)N[C@@H](CC(=O)O)C(=O)N[C@@H](CO)C(=O)N[C@@H](Cc1ccccc1)C(=O)N[C@@H](Cc1cccc2ccccc12)C(=O)N[C@@H](CCCCN)C(=O)N1CCC[C@H]1C(=O)N1CCC[C@H]1C(=O)O", "note": "(H-P[Trp(6-Cl)]RLRK[Cba]PDSF[1Nal]KPP-OH)", "pIC50": 6.67},
      {"compound": "H-PWRLRKLPDSFFKPP-OH", "pIC50": 4.62},
      {"compound": "CC(C)C[C@H](NC(=O)[C@H](CCCNC(=N)N)NC(=O)[C@H](Cc1c[nH]c2cc(Cl)ccc12)NC(=O)[C@@H]1CCCN1)C(=O)N[C@@H](CCCNC(=N)N)C(=O)N[C@@H](CCCCN)C(=O)N[C@@H](CC(C)C)C(=O)N1CCC[C@H]1C(=O)N[C@@H](CC(=O)O)C(=O)N[C@@H](CO)C(=O)N[C@@H](Cc1ccccc1)C(=O)N[C@@H](Cc1ccccc1)C(=O)N[C@@H](CCCCN)C(=O)N1CCC[C@H]1C(=O)N1CCC[C@H]1C(=O)O", "note": "(H-P[Trp(6-Cl)]RLRKLPDSFFKPP-OH)", "pIC50": 5.23},
      {"compound": "CCCC[C@H](NC(=O)[C@@H]1CCCN1)C(=O)N[C@@H](CCCNC(=N)N)C(=O)N[C@@H](CC(C)C)C(=O)N[C@@H](CCCNC(=N)N)C(=O)N[C@@H](CCCCN)C(=O)N[C@@H](CC(C)C)C(=O)N1CCC[C@H]1C(=O)N[C@@H](CC(=O)O)C(=O)N[C@@H](CO)C(=O)N[C@@H](Cc1ccccc1)C(=O)N[C@@H](Cc1ccccc1)C(=O)N[C@@H](CCCCN)C(=O)N1CCC[C@H]1C(=O)N1CCC[C@H]1C(=O)O", "note": "(H-P[Nle]RLRKLPDSFFKPP-OH)", "pIC50": 4.17},
      {"compound": "CC(C)C[C@H](NC(=O)[C@H](CCCNC(=N)N)NC(=O)[C@H](Cc1c[nH]c2cc(Cl)ccc12)NC(=O)[C@@H]1CCCN1)C(=O)N[C@@H](CCCNC(=N)N)C(=O)N[C@@H](CCCCN)C(=O)N[C@@H](CC1CCC1)C(=O)N1C[C@H](O)C[C@H]1C(=O)N[C@@H](CC(=O)O)C(=O)N[C@@H](CO)C(=O)N[C@@H](Cc1ccccc1)C(=O)N[C@@H](Cc1cccc2ccccc12)C(=O)N[C@@H](CCCCN)C(=O)N[C@@H](CCC(=O)O)C(=O)N1CCC[C@H]1C(=O)O", "note": "(H-P[Trp(6-Cl)]RLRK[Cba][Hyp]DSF[1Nal]KEP-OH)", "pIC50": 7.80},
      {"compound": "CCCC[C@H](NC(=O)[C@H](CCCCN)NC(=O)[C@H](CCCNC(=N)N)NC(=O)[C@H](CC(C)C)NC(=O)[C@H](CCCNC(=N)N)NC(=O)[C@H](Cc1c[nH]c2cc(Cl)ccc12)NC(=O)[C@@H]1CCCN1)C(=O)N1CCC[C@H]1C(=O)N[C@@H](CC(=O)O)C(=O)N[C@@H](CO)C(=O)N[C@@H](Cc1cccc(F)c1)C(=O)N[C@@H](Cc1ccccc1)C(=O)N[C@@H](CCCCN)C(=O)N1CCC[C@H]1C(=O)N1CCC[C@H]1C(=O)O", "note": "(H-P[Trp(6-Cl)]RLRK[Nle]PDS[Phe(3-F)]FKPP-OH)", "pIC50": 5.62}
    ]}
  ]
}
